Experimental data published in PubChem BioAssay (NCI).
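96-well plates; 48 h exposure; 5 concentrations. Endpoints by linear interpolation between flanking doses. Not reached: highest tested concentration assigned. GI50: concentration for 50% inhibition of growth. The concentration for full growth arrest is given as TGI.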

Assays:
Experiment in all cases: DTP human tumour cell line panel, 48 h
[1] = system: HCT-116 colon
[2] = system: HL-60(TB) leukemia
[3] = system: LOX IMVI melanoma
[4] = system: M14 melanoma
[5] = system: OVCAR-4 ovarian
[6] = system: SF-295 CNS
[7] = system: SW-620 colon
[8] = system: BT-549 breast
[9] = system: MCF7 breast
[10] = system: MDA-MB-231 breast

Structure (SMILES)	TGI [1] [µM]	TGI [2] [µM]	TGI [3] [µM]	TGI [4] [µM]	TGI [5] [µM]	TGI [6] [µM]	TGI [7] [µM]	TGI [8] [µM]	TGI [9] [µM]	TGI [10] [µM]	GI50 [1] [nM]	GI50 [2] [nM]	GI50 [3] [µM]	GI50 [4] [nM]	GI50 [9] [nM]	GI50 [10] [nM]	GI50 [5] [µM]	GI50 [6] [nM]	GI50 [7] [nM]	GI50 [8] [nM]
C/C=C/C(=O)Oc1cccc2cccnc12	18.1	> 33.8	> 84.6	12	22	> 100	38.5	–	–	–	–	–	–	–	–	–	–	–	–	–
COc1cc(OCc2ccccc2)c2c(CCC(=O)O)cc(=O)oc2c1 (tested in a mixture with another compound)	> 100	93.7	> 100	> 100	> 100	–	> 100	> 100	61.7	> 100	–	–	–	–	–	–	–	–	–	–
Cc1cccc(NC(=O)C(=O)C(C2OC(=O)c3ccccc32)[N+](=O)[O-])c1C (stereo not given)	21.3	6.94	6.26	26.7	25.8	28.1	20.9	–	–	–	–	–	–	–	–	–	–	–	–	–
O=C(/C=C/c1ccc(Cl)c(Cl)c1)c1ccccc1Cl	9.95	16.7	27.7	12.7	27.9	26.9	9.16	–	–	–	–	–	–	–	–	–	–	–	–	–
C[P+]1(Cc2ccccc2)CCCC1	> 100	> 100	> 100	> 100	–	> 100	> 100	–	–	–	–	–	–	–	–	–	–	–	–	–
O=C(O)c1ccc2c(c1)C(=O)N(c1ccc(S(=O)(=O)c3ccc(N4C(=O)c5ccc(C(=O)O)cc5C4=O)cc3)cc1)C2=O	> 100	> 100	> 100	> 100	> 100	> 100	> 100	–	–	–	–	–	–	–	–	–	–	–	–	–
O=S(=O)(NC1=NCCN1C(=S)SN1CCn2c1nsc2=S)c1ccc(Oc2ccccc2)cc1	> 100	11.3	> 100	> 100	> 100	> 100	> 100	–	> 100	> 100	51200	2780	51	> 100000	25700	37800	79.1	> 100000	67000	–
CC[C@@H](C)/C=C(C)/C=C/C(=O)c1c(O)c(-c2ccc(OC(=O)[C@@]34CC[C@@](C)(C(=O)O3)C4(C)C)cc2)cn(O)c1=O	> 50	2.4	> 50	2.49	> 50	26.9	> 50	–	> 50	> 50	1470	841	0.961	1060	1820	1830	1.23	1990	2430	–
CC(=O)OC1CCC2OOC1O2 (stereo not given)	> 100	> 100	> 100	> 100	> 100	> 100	> 100	–	–	–	–	–	–	–	–	–	–	–	–	–
CN(c1ccccc1)c1cc2ccccc2nn1	> 100	> 100	> 100	> 100	> 100	> 100	> 100	–	–	–	–	–	–	–	–	–	–	–	–	–
Nc1cccc2c1-c1c(cccc1[N+](=O)[O-])C2=O	> 100	> 100	> 100	> 100	> 100	> 100	> 100	–	–	–	–	–	–	–	–	–	–	–	–	–
Cc1ccc(S(=O)(=O)OCOS(=O)(=O)c2ccc(C)cc2)cc1	> 100	> 100	> 100	> 100	–	> 100	> 100	–	–	–	–	–	–	–	–	–	–	–	–	–
C[C@]12CC[C@H](O[C@@H]3O[C@H](CO[C@@H]4O[C@H](CO)[C@@H](O)[C@H](O)[C@H]4O)[C@@H](O)[C@H](O)[C@H]3O)C[C@@H]1CC[C@@H]1[C@@H]2CC[C@]2(C)[C@@H](C3=CC(=O)OC3)CC[C@]12O	34.9	54.9	65.6	62.9	57.8	> 31.6	> 100	21.5	–	> 100	–	–	–	–	–	–	–	–	–	–
COc1cccc(Nc2ncnc3cc(NC(=O)CCl)ccc23)c1	2.47	3.54	–	3	–	3.19	2.1	2.69	3.19	2.6	1020	1270	–	1390	789	1270	–	1680	612	1230
COC(=O)c1c[nH]c2cc(OC(C)C)c(OC(C)C)cc2c1=O	> 100	> 100	> 100	> 100	–	–	> 100	> 100	> 100	> 100	> 100000	> 100000	> 100	> 100000	> 100000	> 100000	–	–	> 100000	> 100000
c1ccc(C2=NOC3C4CCC(C4)C23)cc1 (stereo not given)	> 100	> 100	–	> 100	> 100	> 100	> 100	–	–	–	–	–	–	–	–	–	–	–	–	–
Cc1ccccc1NC(=O)/C(=N\NC(N)=S)C(C#N)c1ccccc1 (stereo not given)	> 100	> 100	> 100	> 100	> 100	> 100	> 100	–	–	–	–	–	–	–	–	–	–	–	–	–
Cn1[nH]cc2ccc3nc4ccccc4c(=O)c3c21	> 100	90.8	46.5	> 100	75.8	> 96.3	> 100	–	–	–	–	–	–	–	–	–	–	–	–	–
NCCCNc1nc2ccccc2c2c(=O)c3cc(F)ccc3sc12	2.77	–	2.83	3.11	3.4	3.21	3.27	2.96	2.88	2.9	1430	–	1.43	1690	1400	1450	1.75	1760	1640	1510
CCC12C=CCN(CCc3c([nH]c4ccccc34)/C=C\1)C2 (stereo not given)	> 100	> 100	> 100	> 100	> 100	> 100	> 100	–	–	–	–	–	–	–	–	–	–	–	–	–
O=C(Oc1ccccc1)N(c1ccccc1)c1ccccc1	76.8	71.4	78.6	65.2	> 100	58.7	> 100	41.2	–	> 100	18600	28200	19.9	24700	–	28000	25.1	18800	38800	18200
